The values below come from patent publication US20200347153A1, “METHODS FOR FORMING INCLUSION COMPLEXES WITH HYDROPHILIC BETA-CYCLODEXTRIN DERIVATIVES AND COMPOSITIONS THEREOF” (priority 2019, published 2020).

“Also recorded” adds a separate entry of the source.

Data set [1] can be described thus: Stability studies (shelf life, visible changes). Format: physicochemical. The conditions noted are these: visible changes; for Stability of Actives at 40° C.: 40° C. accelerated stability. As for the experimental part:
The effects of HPBCD on the shelf life stability of each active agent is studied at pre-determined temperatures for 11 weeks. Real time stability is observed at −17° C., 5° C. and 25° C., and accelerated stability is observed at 40° C. For accelerated stability, one day at 40° C. is equivalent to one week, thus the data represents 77 weeks. […] The vials are then placed in a temperature-controlled oven or refrigerator/freezer. The compounds are checked daily and any visible changes are noted.

Data set [2] can be described thus: Differential scanning calorimetry (decomposition). In kind it is physicochemical. The settings on record: DSC curve. On the technique in general: DSC measures the heat that a sample takes up or gives off during a temperature scan.
Experimental: Calorimetric studies are conducted using a Modulated Differential Scanning calorimetry instrument (MDSC). Accurately weighed samples are sealed in Tzero aluminum pans. Empty sealed Tzero aluminum pans are used as a reference. […] Thermal analysis of pure active, excipients, formulations and physical mixtures are performed. Data analysis is performed using Universal Analysis software to measure melting point enthalpy of melting.
Differential scanning calorimetry (DSC) is a thermoanalytical technique useful in detecting phase transitions in solid samples by measuring the amount of heat absorbed or released during such transitions.
DSC analysis was performed using a TA Trios DSC instrument. Samples tested were HPBCD, the Active, and the active-HPBCD inclusion complexes. Each weighed sample for analysis ranged from 2.00 mg to 4.00 mg.
Data set [3] is described as follows: Phase solubility studies. The settings on record: active with HPBCD; calculated using Eq. (1).
Data set [4] in a line: Solubility in water (statements). In kind it is physicochemical.
A short description of data set [5]: Skin permeation and delivery, Franz-type vertical diffusion cell. In kind it is in vitro ADME, human. The conditions noted are these: 0-8 hours.
Experimental: Skin permeation was evaluated using a custom-fabricated Franz-type vertical diffusion cell (FDC). […] Fluid samples can be withdrawn for analysis from the receptor fluid. […] Membranes were defrosted, washed and subjected to visual inspection before use. Skin delivery and permeation studies were performed on six (6) replicates per Active formulation. A finite dose was applied to the surface of the skin under nonocclusive conditions. Dose volume was 10 μl (18 mg/cm^2). The dose was spread using a blunt glass rod. Receptor chambers were inserted in a dry block with an external magnetic stir bar drive that accommodated up to 15 Franz cells per block. […] Receptor well temperature was maintained at 32±0.5° C.; skin surface temperature was maintained at 30±1.0° C. Receptor wells were sampled at three time points, namely 8 hr, 24 hr and 48 hr; 300 μl was removed, loaded in a 96-well plate, and stored at 4-8° C. prior to analysis. Samples were analyzed within 5 days of collection. There was no further preparation of the samples prior to analysis. […] The membrane was […] […] Retention of the Actives in the epidermis and delivery of Actives to the dermis was measured by extracting the Active from each layer individually at twenty-four hours using dimethyl sulfoxide (DMSO). […] After the LC-MS or UV testing was complete, samples were analyzed using ChemStation software (Agilent).

Turning to `CCOC(=O)c1ccc(N)cc1` [Benzocaine], the “Stability of Actives at 5° C.” value in data set [1] (Week 1), in data set [1] (Week 2), in data set [1] (Week 3), in data set [1] (Week 4), in data set [1] (Week 5) and in data set [1] (Week 6) was 0 in each case. For the same compound, the “Stability of Actives at 5° C.” value in data set [1] (Week 7), in data set [1] (Week 8), in data set [1] (Week 9), in data set [1] (Week 10) and in data set [1] (Week 11) was 0 each time. Also, the “Stability of Actives at 25° C.” value in data set [1] (Week 1), in data set [1] (Week 2), in data set [1] (Week 3), in data set [1] (Week 4), in data set [1] (Week 5) and in data set [1] (Week 6) was 0 in each case. In addition, the “Stability of Actives at 25° C.” value in data set [1] (Week 7), in data set [1] (Week 8), in data set [1] (Week 9), in data set [1] (Week 10) and in data set [1] (Week 11) was 0 each time. Further, the “Stability of Actives at 40° C.” value in data set [1] (Week 1), in data set [1] (Week 2), in data set [1] (Week 3), in data set [1] (Week 4), in data set [1] (Week 5) and in data set [1] (Week 6) was 0 throughout. Besides, the “Stability of Actives at 40° C.” value in data set [1] (Week 7), in data set [1] (Week 8), in data set [1] (Week 9), in data set [1] (Week 10) and in data set [1] (Week 11) was 0 throughout. Further, the “decomposition (DSC)” value in data set [2] stood at 230 °C. Further, the “association constant (Kc) for complex formation” value in data set [3] was 1.031 M⁻¹.

Turning to `C=C(C)[C@@H]1CCC(C)=C[C@H]1c1c(O)cc(CCCCC)cc1O` [CBD, Cannabidiol], the “Stability of Actives at 25° C.” value in data set [1] (Week 1), in data set [1] (Week 2) and in data set [1] (Week 3) was 0 in each case. For the same compound, in data set [4], the solubility in water result was “completely insoluble in water; also recorded: poor water solubility”. Further, the “delivered dose, transdermal” value in data set [5] is listed as “no amount of CBD was detected as penetrating through the skin”. Besides, the “association constant (Kc) for complex formation” value in data set [3] is 0.42247 M⁻¹.
